Data reported in paper PMC5218480 (PLoS ONE, 2017).

Test system: MV-4-11 cells
Assay: Gene expression microarray analysis (Affymetrix PrimeView) and GSEA
Assay type: cell-based, human
Parameters: RFU PODN (11730768_x_at) / Fold change /veh PODN (11730768_x_at) / RFU LINC00158 (11744669_a_at) / Fold change /veh LINC00158 (11744669_a_at) / RFU DUSP10 (11751237_a_at) / Fold change /veh DUSP10 (11751237_a_at) / RFU ID3 (11757404_x_at) / Fold change /veh ID3 (11757404_x_at) / RFU PLEKHG5 (11737974_s_at) / Fold change /veh PLEKHG5 (11737974_s_at) / RFU LRRC4B (11730491_at) / Fold change /veh LRRC4B (11730491_at) / RFU GIMAP4 (11747438_a_at) / Fold change /veh GIMAP4 (11747438_a_at) / RFU KRT8 (11758183_x_at) / Fold change /veh KRT8 (11758183_x_at) / RFU CNN1 (11734310_a_at) / Fold change /veh CNN1 (11734310_a_at) / RFU VPS37D (11726825_at) / Fold change /veh VPS37D (11726825_at) / RFU C10orf10 (11716522_x_at) / Fold change /veh C10orf10 (11716522_x_at) / RFU KIR2DL2 /// KIR2DL4 /// KIR2DL5A /// KIR2DL5B /// KIR2DS1 /// KIR2DS2 /// KIR2DS3 /// KIR2DS4 /// KIR3DL3 /// KIR3DL3 /// KIR3DS1 (11738374_at) / Fold change /veh KIR2DL2 /// KIR2DL4 /// KIR2DL5A /// KIR2DL5B /// KIR2DS1 /// KIR2DS2 /// KIR2DS3 /// KIR2DS4 /// KIR3DL3 /// KIR3DL3 /// KIR3DS1 (11738374_at) / RFU C1QL1 (11718748_at) / Fold change /veh C1QL1 (11718748_at) / RFU TMPRSS4 (11747572_a_at) / Fold change /veh TMPRSS4 (11747572_a_at) / RFU HAMP (11756126_x_at) / Fold change /veh HAMP (11756126_x_at) / RFU RNFT2 (11725882_a_at) / Fold change /veh RNFT2 (11725882_a_at) / RFU NR4A2 (11747474_a_at) / Fold change /veh NR4A2 (11747474_a_at) / RFU ABCC12 (11746883_a_at) / Fold change /veh ABCC12 (11746883_a_at) / RFU TMEM136 (11760407_x_at) / Fold change /veh TMEM136 (11760407_x_at) / RFU CLDN22 /// WWC2 (11732394_at) / Fold change /veh CLDN22 /// WWC2 (11732394_at) / RFU HLA-DPB1 (11760878_x_at) / Fold change /veh HLA-DPB1 (11760878_x_at) / RFU SPINT1 (11716480_a_at) / Fold change /veh SPINT1 (11716480_a_at) / RFU GAP43 (11754022_s_at) / Fold change /veh GAP43 (11754022_s_at) / RFU A4GNT (11735810_at) / Fold change /veh A4GNT (11735810_at) / RFU PRB3 (11715151_x_at) / Fold change /veh PRB3 (11715151_x_at) / RFU TUBB4B (11761932_at) / Fold change /veh TUBB4B (11761932_at) / RFU CAPN14 (11732068_a_at) / Fold change /veh CAPN14 (11732068_a_at) / RFU TMCC2 (11721928_a_at) / Fold change /veh TMCC2 (11721928_a_at) / RFU IRGQ (11745062_a_at) / Fold change /veh IRGQ (11745062_a_at) / RFU FAM174B (11720279_a_at) / Fold change /veh FAM174B (11720279_a_at) / RFU TMPRSS4 (11748680_a_at) / Fold change /veh TMPRSS4 (11748680_a_at) / RFU FAM212B (11763350_a_at) / Fold change /veh FAM212B (11763350_a_at) / RFU PLEKHG5 (11743358_a_at) / Fold change /veh PLEKHG5 (11743358_a_at) / RFU ZSCAN30 (11745921_a_at) / Fold change /veh ZSCAN30 (11745921_a_at) / RFU CMKLR1 (11741424_a_at) / Fold change /veh CMKLR1 (11741424_a_at) / RFU LOC101060620 /// MAPK8IP1 (11723275_at) / Fold change /veh LOC101060620 /// MAPK8IP1 (11723275_at) / RFU SPTSSB (11747773_x_at) / Fold change /veh SPTSSB (11747773_x_at) / RFU PRSS12 (11739890_at) / Fold change /veh PRSS12 (11739890_at) / RFU BIN1 (11741810_x_at) / Fold change /veh BIN1 (11741810_x_at) / RFU WNT11 (11732464_a_at) / Fold change /veh WNT11 (11732464_a_at) / RFU C10orf10 (11716521_a_at) / Fold change /veh C10orf10 (11716521_a_at) / RFU C5orf56 (11738089_at) / Fold change /veh C5orf56 (11738089_at) / RFU CYB561 (11721691_x_at) / Fold change /veh CYB561 (11721691_x_at) / RFU ANKRD19P (11752326_a_at) / Fold change /veh ANKRD19P (11752326_a_at) / RFU OR2T12 /// OR2T33 /// OR2T8 (11738714_s_at) / Fold change /veh OR2T12 /// OR2T33 /// OR2T8 (11738714_s_at) / RFU VCAN (11748164_a_at) / Fold change /veh VCAN (11748164_a_at) / RFU JSRP1 (11732532_at) / Fold change /veh JSRP1 (11732532_at) / RFU KRTAP10-11 (11738290_x_at) / Fold change /veh KRTAP10-11 (11738290_x_at) / RFU MYO3A (11730013_a_at) / Fold change /veh MYO3A (11730013_a_at) / RFU EBF3 (11725865_a_at) / Fold change /veh EBF3 (11725865_a_at) / RFU CAMK2N1 (11719241_x_at) / Fold change /veh CAMK2N1 (11719241_x_at) / RFU C5orf56 (11738088_a_at) / Fold change /veh C5orf56 (11738088_a_at) / RFU OLFML3 (11715873_a_at) / Fold change /veh OLFML3 (11715873_a_at) / RFU LOC100653217 /// NTM (11731650_a_at) / Fold change /veh LOC100653217 /// NTM (11731650_a_at) / RFU MAPK11 (11762145_a_at) / Fold change /veh MAPK11 (11762145_a_at) / RFU FIZ1 (11724087_x_at) / Fold change /veh FIZ1 (11724087_x_at) / RFU OASL (11726364_x_at) / Fold change /veh OASL (11726364_x_at) / RFU SOX15 (11748057_x_at) / Fold change /veh SOX15 (11748057_x_at) / RFU CD79A (11719716_a_at) / Fold change /veh CD79A (11719716_a_at) / RFU HIST1H1D (11736915_at) / Fold change /veh HIST1H1D (11736915_at) / RFU CASKIN2 (11723855_a_at) / Fold change /veh CASKIN2 (11723855_a_at) / RFU LOC730098 (11760151_x_at) / Fold change /veh LOC730098 (11760151_x_at) / RFU OR4N2 (11742367_at) / Fold change /veh OR4N2 (11742367_at) / RFU PRRT2 (11749266_a_at) / Fold change /veh PRRT2 (11749266_a_at) / RFU SNX32 (11753110_a_at) / Fold change /veh SNX32 (11753110_a_at) / RFU CDHR5 (11726645_a_at) / Fold change /veh CDHR5 (11726645_a_at) / RFU RCAN1 (11760418_a_at) / Fold change /veh RCAN1 (11760418_a_at) / RFU FAM167A (11723789_a_at) / Fold change /veh FAM167A (11723789_a_at) / RFU FAM26E (11764081_at) / Fold change /veh FAM26E (11764081_at) / RFU ISYNA1 (11749810_s_at) / Fold change /veh ISYNA1 (11749810_s_at) / RFU ACY1 (11761880_at) / Fold change /veh ACY1 (11761880_at) / RFU 11764098_at / Fold change /veh 11764098_at / RFU SAMD14 (11745864_x_at) / Fold change /veh SAMD14 (11745864_x_at) / RFU NPB (11741838_a_at) / Fold change /veh NPB (11741838_a_at) / RFU TMPRSS6 (11731388_a_at) / Fold change /veh TMPRSS6 (11731388_a_at) / RFU KRTAP10-2 (11738614_at) / Fold change /veh KRTAP10-2 (11738614_at) / RFU ARHGAP8 /// PRR5-ARHGAP8 (11727945_x_at) / Fold change /veh ARHGAP8 /// PRR5-ARHGAP8 (11727945_x_at) / RFU KRTAP5-7 /// NADSYN1 (11734609_at) / Fold change /veh KRTAP5-7 /// NADSYN1 (11734609_at) / RFU RASL12 (11751679_a_at) / Fold change /veh RASL12 (11751679_a_at) / RFU CDKN2B (11736163_a_at) / Fold change /veh CDKN2B (11736163_a_at) / RFU PRF1 (11729649_at) / Fold change /veh PRF1 (11729649_at) / RFU, ZNF638 /// ZNF638-IT1 / Fold change vs veh, ZNF638 /// ZNF638-IT1 / RFU, PANK3 / Fold change vs veh, PANK3 / RFU, SH3YL1 / Fold change vs veh, SH3YL1 / RFU, ZEB2 / Fold change vs veh, ZEB2 / RFU, NRIP1 / Fold change vs veh, NRIP1 / RFU, PTTG1IP / Fold change vs veh, PTTG1IP / RFU, CAPN2 / Fold change vs veh, CAPN2 / RFU, MED14 / Fold change vs veh, MED14 / RFU, SNORA58 / Fold change vs veh, SNORA58 / RFU, C1orf63 / Fold change vs veh, C1orf63 / RFU, LRRFIP1 / Fold change vs veh, LRRFIP1 / RFU, NDUFAF7 / Fold change vs veh, NDUFAF7 / RFU, SLC12A2 / Fold change vs veh, SLC12A2 / RFU, IBTK / Fold change vs veh, IBTK / RFU, ESF1 / Fold change vs veh, ESF1 / Fold change vs veh, TMEM50B / RFU, TAOK1 / Fold change vs veh, TAOK1 / RFU, ACBD3 / Fold change vs veh, ACBD3 / RFU, TMA16 / Fold change vs veh, TMA16 / RFU, RWDD3 / Fold change vs veh, RWDD3 / RFU, BCAT1 / Fold change vs veh, BCAT1 / RFU, EDEM3 / Fold change vs veh, EDEM3 / RFU, TMEM33 / Fold change vs veh, TMEM33 / RFU, WDR75 / Fold change vs veh, WDR75 / RFU, AHCTF1 / Fold change vs veh, AHCTF1 / RFU, TFRC / Fold change vs veh, TFRC / RFU, ZDHHC17 / Fold change vs veh, ZDHHC17 / RFU, NOM1 / Fold change vs veh, NOM1 / RFU, ARL8B / Fold change vs veh, ARL8B / RFU, ZBTB11 / Fold change vs veh, ZBTB11 / RFU, TAMM41 / Fold change vs veh, TAMM41 / RFU, KIAA1704 /// LOC100996395 / Fold change vs veh, KIAA1704 /// LOC100996395 / RFU, ING1 / Fold change vs veh, ING1 / RFU, TRMT61B / Fold change vs veh, TRMT61B / RFU, FUBP3 / Fold change vs veh, FUBP3 / RFU, TP53 / Fold change vs veh, TP53 / RFU, TNKS2 / Fold change vs veh, TNKS2 / RFU, ZFP14 / Fold change vs veh, ZFP14 / RFU, ACTR2 / Fold change vs veh, ACTR2 / RFU, PPP3R1 / Fold change vs veh, PPP3R1 / RFU, PIK3R1 / Fold change vs veh, PIK3R1 / RFU, HNRNPA1 / Fold change vs veh, HNRNPA1 / RFU, RNF170 / Fold change vs veh, RNF170 / RFU, ZNF28 / Fold change vs veh, ZNF28 / RFU, RNGTT / Fold change vs veh, RNGTT / RFU, OGT / Fold change vs veh, OGT / RFU, BRD1 / Fold change vs veh, BRD1 / RFU, MARS / Fold change vs veh, MARS / RFU, ZNF655 / Fold change vs veh, ZNF655 / RFU, FAHD1 / Fold change vs veh, FAHD1 / RFU, BDP1 / Fold change vs veh, BDP1 / RFU, LRRCC1 / Fold change vs veh, LRRCC1 / RFU, ARID1A / Fold change vs veh, ARID1A / RFU, ZNF146 / Fold change vs veh, ZNF146 / RFU, ZNF330 / Fold change vs veh, ZNF330 / RFU, GPN3 / Fold change vs veh, GPN3 / RFU, C9orf123 / Fold change vs veh, C9orf123 / RFU, N4BP2L2 / Fold change vs veh, N4BP2L2 / RFU, ARFIP1 / Fold change vs veh, ARFIP1 / RFU, FAM179B / Fold change vs veh, FAM179B / RFU, BCL10 / Fold change vs veh, BCL10 / RFU, UHRF1BP1L / Fold change vs veh, UHRF1BP1L / RFU, BET1 / Fold change vs veh, BET1 / RFU, CNOT2 / Fold change vs veh, CNOT2 / RFU, ZNF268 / Fold change vs veh, ZNF268 / Fold change vs veh, ZNF507 / RFU, DGCR2 / Fold change vs veh, DGCR2 / RFU, WDSUB1 / Fold change vs veh, WDSUB1 / Fold change vs veh, HSP90B1 /// MIR3652 / RFU, ADSS / Fold change vs veh, ADSS / RFU, GK / Fold change vs veh, GK / RFU, ZNF148 / Fold change vs veh, ZNF148 / RFU, TAF9 / Fold change vs veh, TAF9 / RFU, SLC1A5 / Fold change vs veh, SLC1A5 / RFU, SLMO2 / Fold change vs veh, SLMO2 / RFU, ABCC4 / Fold change vs veh, ABCC4 / RFU, LOC101060439 /// RAP1B / Fold change vs veh, LOC101060439 /// RAP1B / RFU, RFX7 / Fold change vs veh, RFX7 / RFU, GTPBP10 / Fold change vs veh, GTPBP10 / RFU, CNEP1R1 / Fold change vs veh, CNEP1R1 / RFU, BIVM-ERCC5 /// ERCC5 / Fold change vs veh, BIVM-ERCC5 /// ERCC5 / RFU, ILF3 / Fold change vs veh, ILF3 / RFU 11762660_at / Fold change /veh 11762660_at / RFU VCAN (11757783_s_at) / Fold change /veh VCAN (11757783_s_at) / RFU DDX43 (11728927_at) / Fold change /veh DDX43 (11728927_at) / RFU KRT8 (11758188_x_at) / Fold change /veh KRT8 (11758188_x_at) / RFU NKD1 (11759106_at) / Fold change /veh NKD1 (11759106_at) / RFU SRD5A1 (11742802_a_at) / Fold change /veh SRD5A1 (11742802_a_at) / RFU TPSAB1 /// TPSB2 (11721975_s_at) / Fold change /veh TPSAB1 /// TPSB2 (11721975_s_at) / RFU GSTM3 (11746129_a_at) / Fold change /veh GSTM3 (11746129_a_at) / RFU IL23R (11737362_x_at) / Fold change /veh IL23R (11737362_x_at) / RFU TMEM51 (11727254_a_at) / Fold change /veh TMEM51 (11727254_a_at) / RFU PIWIL2 (11732686_x_at) / Fold change /veh PIWIL2 (11732686_x_at) / RFU ORM1 (11744905_x_at) / Fold change /veh ORM1 (11744905_x_at) / RFU CCDC152 (11743942_at) / Fold change /veh CCDC152 (11743942_at) / RFU ECM1 (11717891_a_at) / Fold change /veh ECM1 (11717891_a_at) / RFU IL23R (11748794_a_at) / Fold change /veh IL23R (11748794_a_at) / RFU TNFAIP8L3 (11732012_x_at) / Fold change /veh TNFAIP8L3 (11732012_x_at) / RFU MBOAT4 (11741988_at) / Fold change /veh MBOAT4 (11741988_at) / RFU 11764193_at / Fold change /veh 11764193_at / RFU TMEM53 (11763286_at) / Fold change /veh TMEM53 (11763286_at) / RFU MAGEB2 (11727129_at) / Fold change /veh MAGEB2 (11727129_at) / RFU TMEM200A (11744735_a_at) / Fold change /veh TMEM200A (11744735_a_at) / RFU CCDC152 (11751479_a_at) / Fold change /veh CCDC152 (11751479_a_at) / RFU FAM211A (11726209_a_at) / Fold change /veh FAM211A (11726209_a_at) / RFU RGS16 (11746705_a_at) / Fold change /veh RGS16 (11746705_a_at) / RFU VCAN (11755009_s_at) / Fold change /veh VCAN (11755009_s_at) / RFU RHOB (11743442_s_at) / Fold change /veh RHOB (11743442_s_at) / RFU RGS16 (11720943_a_at) / Fold change /veh RGS16 (11720943_a_at) / RFU RGS16 (11720944_at) / Fold change /veh RGS16 (11720944_at) / RFU, VPS4B / Fold change vs veh, VPS4B / RFU, CREB1 / Fold change vs veh, CREB1 / RFU, DNAJC13 / Fold change vs veh, DNAJC13 / RFU, GNAQ / Fold change vs veh, GNAQ / RFU, CDK5R1 / Fold change vs veh, CDK5R1 / RFU, ZRANB3 / Fold change vs veh, ZRANB3 / RFU, CUL4A / Fold change vs veh, CUL4A / RFU, CCNY / Fold change vs veh, CCNY / RFU, UFL1 / Fold change vs veh, UFL1 / RFU, COG3 / Fold change vs veh, COG3 / RFU, DIAPH2 / Fold change vs veh, DIAPH2 / RFU, SKA2 / Fold change vs veh, SKA2 / RFU, AFF3 / Fold change vs veh, AFF3 / RFU, LMF1 / Fold change vs veh, LMF1 / RFU, IPO11 / Fold change vs veh, IPO11 / RFU, DFFB / Fold change vs veh, DFFB / RFU, FOXP1 / Fold change vs veh, FOXP1 / RFU, CARD8 / Fold change vs veh, CARD8 / RFU, STRN3 / Fold change vs veh, STRN3 / RFU, ADK / Fold change vs veh, ADK / RFU, RASSF2 / Fold change vs veh, RASSF2 / RFU, WIPF1 / Fold change vs veh, WIPF1 / RFU, LARP1B / Fold change vs veh, LARP1B / RFU, RASA1 / Fold change vs veh, RASA1 / RFU, RB1 / Fold change vs veh, RB1 / RFU, PPFIA1 / Fold change vs veh, PPFIA1 / RFU, MAT2A / Fold change vs veh, MAT2A / RFU, CCT5 / Fold change vs veh, CCT5 / RFU, WDR92 / Fold change vs veh, WDR92 / RFU, CUX1 / Fold change vs veh, CUX1 / RFU, TTC7A / Fold change vs veh, TTC7A / RFU, TMEM135 / Fold change vs veh, TMEM135 / RFU, DEPTOR / Fold change vs veh, DEPTOR / RFU, CPM / Fold change vs veh, CPM / RFU, DNAJB6 / Fold change vs veh, DNAJB6 / RFU, CACNA2D3 / Fold change vs veh, CACNA2D3 / RFU, DTX4 / Fold change vs veh, DTX4 / RFU, TFCP2 / Fold change vs veh, TFCP2 / RFU, GMCL1 /// GMCL1P1 / Fold change vs veh, GMCL1 /// GMCL1P1 / RFU, AEBP2 / Fold change vs veh, AEBP2 / RFU, SNHG1 /// SNORD22 /// SNORD25 /// SNORD26 /// SNORD27 /// SNORD28 /// SNORD29 /// SNORD31 / Fold change vs veh, SNHG1 /// SNORD22 /// SNORD25 /// SNORD26 /// SNORD27 /// SNORD28 /// SNORD29 /// SNORD31 / Fold change (Aza/veh), C12orf56 (ProbeSet 11735607_a_at) / Fold change (ACY-1035/veh), C12orf56 (ProbeSet 11735607_a_at) / Fold change (Aza/veh), FGFR1OP (ProbeSet 11751329_s_at) / Fold change (ACY-1035/veh), FGFR1OP (ProbeSet 11751329_s_at) / Fold change (Aza/veh), VPS36 (ProbeSet 11739960_a_at) / Fold change (ACY-1035/veh), VPS36 (ProbeSet 11739960_a_at) / RFU SYPL1 (11715823_x_at) / Fold change /veh SYPL1 (11715823_x_at) / RFU IGFBP7 (11715501_s_at) / Fold change /veh IGFBP7 (11715501_s_at) / RFU REEP3 (11722064_at) / Fold change /veh REEP3 (11722064_at) / RFU IGLL1 (11728026_x_at) / Fold change /veh IGLL1 (11728026_x_at): dose or concentration left out as unconfirmed
Details: MV-4-11 cells, 48 hours

Question: Nc1ncn([C@@H]2O[C@H](CO)[C@@H](O)[C@H]2O)c(=O)n1 [azacitidine] was tested. Which “Fold change /veh CCDC152 (11743942_at)” value did it give?
Answer: The value was 1.57.
